From patent US10695562B2, “Interventional drug delivery system and associated methods” (The University of North Carolina at Chapel Hill, priority 2009, dated 2020)

Columns and labels:
[1] = Gemcitabine transport in orthotopic xenograft tumors, transport testing system, HPLC; type: in vitro ADME; settings: constant current 20 mA, 20 minutes, tumors 1.25 to 1.5 cm
Protocol: To assess and optimize the electrical transport parameters in tissue, a transport testing system was built (see FIG. 32A). The transport of gemcitabine, the current standard-of-care therapy for pancreatic cancer, was evaluated in orthotopic xenograft tumors using this transport testing system (see FIG. 32B). The tumors chosen for the studies were 1.25 to 1.5 cm in diameter because of compatibility with the size of the transport cell. The gemcitabine was used according to the current clinical formulation (Gemzar® to Eli Lilly and Company), at a concentration relevant to that administered in the clinic. For three tumors, a constant current of 20 mA was applied for 20 minutes, and the amount of gemcitabine was evaluated using a high-performance liquid chromatography (HPLC) analysis method. For three additional tumors, no current was applied, which allowed for passive diffusion of the gemcitabine into the tumor, and the amount of gemcitabine was evaluated using the same HPLC analysis method.

[2] = Plasma concentrations of gemcitabine, implantable device on canine pancreas, UV-HPLC; type: in vivo; parameters: key to Gem Concentration (plasma): *: Below limit of detection
Protocol: The reservoir based system similar to that shown in FIGS. 33A-D was surgically implanted onto the pancreas of a canine. All animal models were anesthetized and attached to a respirator for the entirety of the study. The implantable device approach was assessed via a laparotomy. The pancreas was assessed for ease of access.
There were three arms for the large animal experiment: 1. Device with current; 2. Device without current; and 3. IV Infusion (see Table 2). The device was sutured onto the right lobe of the canine pancreas. Gemcitabine formulated at clinically relevant concentrations was pumped into and out of the device at ˜1.5 mL/min during the application of 10 mA of current applied for 60 minutes. Control experiments were run without current. After administration of therapy, the pancreas was excised and snap frozen for analysis. The gemcitabine was measured from the section tissue using UV-HPLC from established protocols in the literature (see Olive, K P, et al. Science 324 (2009) 1457-1461 and Kirstein M N, et al., J Chromatogr B Analyt Technol Biomed Life Sci. 835 (2006) 136-142). Shown in FIG. 34 are the results obtained from the three experimental arms analyzing the mass of gemcitabine from the entire pancreas.
In FIG. 35, the transport distance of the gemcitabine is shown for the with and without current arms. […] Plasma concentrations of gemcitabine were detected at 15-minute increments prior to and during the large animal study. The tissue was sectioned using a cryostat microtome and gemcitabine was extracted using an established extraction method (see Olive et al.). The gemcitabine was detected and quantified using UV-HPLC (see Olive et al. and Kirstein et al.).

Nc1ccn([C@@H]2O[C@H](CO)[C@@H](O)C2(F)F)c(=O)n1 [Gemcitabine, gemcitabine]
eight-fold increase: increase in the amount of gemcitabine within tumor compared to the control (no current applied) [1]
*: Gem Concentration (plasma) ([2]; Device - Current Applied (10 mA), sample 0 min) | Gem Concentration (plasma) ([2]; Device - Current Applied (10 mA), sample 15 min) | Gem Concentration (plasma) ([2]; Device - Current Applied (10 mA), sample 30 min) | Gem Concentration (plasma) ([2]; Device - Current Applied (10 mA), sample 45 min) | Gem Concentration (plasma) ([2]; Device - Current Applied (10 mA), sample 60 min) | Gem Concentration (plasma) ([2]; Device - Current Applied (10 mA), sample −15 min) | Gem Concentration (plasma) ([2]; Device - No Current, sample 0 min) | Gem Concentration (plasma) ([2]; Device - No Current, sample 15 min) | Gem Concentration (plasma) ([2]; Device - No Current, sample 30 min) | Gem Concentration (plasma) ([2]; Device - No Current, sample 45 min) | Gem Concentration (plasma) ([2]; Device - No Current, sample 60 min) | Gem Concentration (plasma) ([2]; Device - No Current, sample −15 min)
below the detectable limit: gemcitabine levels detected in the plasma of the dogs ([2]; with and without current arms, device on pancreas)
